Results published in PubChem BioAssay (NCI).
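A five-concentration, 48-hour dose response in 96-well plates underlies each endpoint, interpolated linearly between surrounding concentrations. GI50 is the concentration that inhibits growth by half. TGI marks complete inhibition of growth.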

What was measured:
Test in all cases: NCI anticancer screen, dose series, 48 h
[1] = system: CCRF-CEM leukemia
[2] = system: EKVX NSCLC
[3] = system: HCC-2998 colon
[4] = system: HCT-15 colon
[5] = system: HOP-92 NSCLC
[6] = system: HS 578T breast
[7] = system: LOX IMVI melanoma
[8] = system: MALME-3M melanoma
[9] = system: NCI-H226 lung
[10] = system: SK-MEL-5 melanoma
[11] = system: SK-OV-3 ovarian
[12] = system: SN12C renal
[13] = system: T-47D breast
[14] = system: UACC-257 melanoma

## CC(C)CC(=O)OC[n+]1cccc(-c2c(COC(=O)NC(C)C)c(COC(=O)NC(C)C)c3n2CCC3)c1
[1]
  TGI: > 100 µM
[2]
  TGI: > 100 µM
[3]
  TGI: > 100 µM
[4]
  TGI: > 100 µM
[5]
  TGI: 76.9 µM
[6]
  TGI: > 100 µM
[7]
  TGI: > 100 µM
[8]
  TGI: > 100 µM
[9]
  TGI: > 100 µM
[10]
  TGI: > 100 µM
[11]
  TGI: > 100 µM
[12]
  TGI: > 100 µM
[13]
  TGI: > 100 µM
[14]
  TGI: > 100 µM

## Cc1ccc(-c2cnc(NC3OC(COC(=O)c4ccccc4)C(OC(=O)c4ccccc4)C(OC(=O)c4ccccc4)C3OC(=O)c3ccccc3)s2)cc1 (stereo not drawn)
[2]
  TGI: > 100 µM
[4]
  TGI: > 100 µM
[5]
  TGI: > 100 µM
[6]
  TGI: > 100 µM
[7]
  TGI: > 100 µM
[8]
  TGI: > 100 µM
[9]
  TGI: > 100 µM
[10]
  TGI: > 100 µM
[11]
  TGI: > 100 µM
[12]
  TGI: > 100 µM
[13]
  TGI: > 100 µM
[14]
  TGI: > 100 µM

## O=S(=O)([N-]c1nc2ccccc2nc1-[n+]1ccccc1)c1ccccc1
[1]
  TGI: 30.7 µM
[2]
  TGI: > 100 µM
[3]
  TGI: > 100 µM
[4]
  TGI: > 100 µM
[5]
  TGI: > 100 µM
[6]
  TGI: > 100 µM
[7]
  TGI: > 100 µM
[8]
  TGI: > 100 µM
[9]
  TGI: > 100 µM
[10]
  TGI: > 100 µM
[11]
  TGI: > 100 µM
[12]
  TGI: > 100 µM
[13]
  TGI: > 100 µM
[14]
  TGI: > 100 µM

## CCC1=NC(N/N=C/c2ccccc2O)=N/C1=C\c1ccccc1O
[1]
  TGI: > 100 µM
[2]
  TGI: > 100 µM
[3]
  TGI: 36.4 µM
[4]
  TGI: 12.6 µM
[5]
  TGI: > 84 µM
[6]
  TGI: > 83.7 µM
[7]
  TGI: > 42.9 µM
[8]
  TGI: 85.4 µM
[9]
  TGI: > 69 µM
[10]
  TGI: > 100 µM
[11]
  TGI: 76.2 µM
[12]
  TGI: > 83 µM
[13]
  TGI: > 76.5 µM
[14]
  TGI: > 100 µM

## CCOC(=O)C1C(C(C)C)C2(C#N)C(=N)OC1(C)C2(C#N)C#N (stereo not drawn)
[1]
  TGI: > 100 µM
[2]
  TGI: > 100 µM
[3]
  TGI: > 100 µM
[4]
  TGI: > 100 µM
[5]
  TGI: > 100 µM
[6]
  TGI: > 100 µM
[7]
  TGI: > 100 µM
[8]
  TGI: > 100 µM
[9]
  TGI: > 100 µM
[10]
  TGI: > 100 µM
[11]
  TGI: > 100 µM
[12]
  TGI: > 100 µM
[13]
  TGI: > 100 µM
[14]
  TGI: > 100 µM

## Cc1cc2c(cc1Cl)SC(NNC(=O)c1ccncc1)=NS2(=O)=O
[1]
  TGI: > 10 µM
[2]
  TGI: > 10 µM
[3]
  TGI: > 10 µM
[4]
  TGI: > 10 µM
[6]
  TGI: > 10 µM
[7]
  TGI: > 10 µM
[8]
  TGI: > 10 µM
[9]
  TGI: > 10 µM
[10]
  TGI: > 10 µM
[11]
  TGI: > 10 µM
[12]
  TGI: > 10 µM
[13]
  TGI: > 10 µM
[14]
  TGI: > 10 µM

## CO[C@H]1C[C@@H]2CC[C@@H](C)[C@@](O)(O2)C(=O)C(=O)N2CCCC[C@H]2C(=O)O[C@H]([C@H](C)C[C@@H]2CC[C@@H](OC(=O)C(C)(CO)CO)[C@H](OC)C2)CC(=O)[C@H](C)/C=C(\C)[C@@H](O)[C@@H](OC)C(=O)[C@H](C)C[C@H](C)/C=C/C=C/C=C/1C
[2]
  TGI: > 52.2 µM
[3]
  GI50: 0.00154 µM
  TGI: > 46.9 µM
[4]
  GI50: < 0.0222 µM
  TGI: > 100 µM
[5]
  GI50: 1.58 µM
[6]
  TGI: 17.2 µM
[7]
  TGI: > 75.9 µM
[9]
  GI50: 0.0187 µM
  TGI: 22.1 µM
[10]
  GI50: 1.87 µM
  TGI: > 100 µM
[11]
  TGI: > 100 µM
[12]
  GI50: 0.497 µM
  TGI: > 71.3 µM
[13]
  TGI: > 100 µM
[14]
  TGI: 51.5 µM

## CC(=O)CCC(=O)CC(O)(C(F)(F)F)C(F)(F)F
[1]
  TGI: 51 µM
[3]
  TGI: 33.6 µM
[4]
  TGI: 35.4 µM
[5]
  TGI: 26.7 µM
[6]
  TGI: 38.5 µM
[8]
  TGI: 32.9 µM
[9]
  TGI: 24.7 µM
[10]
  TGI: 33.2 µM
[12]
  TGI: 36.5 µM
[13]
  TGI: 40 µM
[14]
  TGI: 33.7 µM

## COC(=O)c1cccc(C)c1C1CN=NC12Cc1c(ccc(C)c1C)C2=O (stereo not drawn)
[1]
  TGI: > 100 µM
[2]
  TGI: 57.9 µM
[3]
  TGI: > 100 µM
[4]
  TGI: > 100 µM
[5]
  TGI: > 100 µM
[6]
  TGI: > 100 µM
[7]
  TGI: > 100 µM
[8]
  TGI: 78.1 µM
[9]
  TGI: > 100 µM
[10]
  TGI: 17.7 µM
[12]
  TGI: > 100 µM
[13]
  TGI: 25.1 µM
[14]
  TGI: > 100 µM

## CC1(C)C[C@H]2C3=CC[C@@H]4[C@@]5(C)CC[C@H](O)C(C)(C)[C@@H]5CC[C@@]4(C)[C@]3(C)C[C@@H](O)[C@@]23C[C@@H]1OC3=O
[1]
  TGI: > 100 µM
[2]
  TGI: > 100 µM
[3]
  TGI: > 100 µM
[4]
  TGI: > 100 µM
[5]
  TGI: > 100 µM
[6]
  TGI: > 100 µM
[7]
  TGI: > 100 µM
[8]
  TGI: > 100 µM
[10]
  TGI: > 100 µM
[11]
  TGI: > 100 µM
[12]
  TGI: > 100 µM
[13]
  TGI: > 100 µM
[14]
  TGI: > 100 µM

## c1ccc2c(c1)n1c(N3CCOCC3)[n+]3ccccc3c1c1c3cccc[n+]3c(N3CCOCC3)n21
[1]
  TGI: > 100 µM
[2]
  TGI: > 100 µM
[3]
  TGI: > 100 µM
[4]
  TGI: > 100 µM
[5]
  TGI: > 100 µM
[6]
  TGI: > 100 µM
[7]
  TGI: > 100 µM
[8]
  TGI: > 100 µM
[9]
  TGI: > 100 µM
[10]
  TGI: > 100 µM
[12]
  TGI: > 100 µM
[13]
  TGI: > 100 µM
[14]
  TGI: > 100 µM

## OC1OC(c2ccc[nH]2)C(F)(F)C(F)(F)C1(F)F (stereo not drawn)
[1]
  TGI: > 100 µM
[2]
  TGI: > 100 µM
[4]
  TGI: > 100 µM
[5]
  TGI: > 100 µM
[6]
  TGI: > 100 µM
[7]
  TGI: > 100 µM
[8]
  TGI: > 100 µM
[9]
  TGI: > 100 µM
[10]
  TGI: > 100 µM
[11]
  TGI: > 100 µM
[12]
  TGI: > 100 µM
[13]
  TGI: > 100 µM
[14]
  TGI: > 100 µM

## O=C(n1[nH]c(=O)n(-c2ccc([N+](=O)[O-])cc2)c1=O)C(Cl)(Cl)Cl
[2]
  TGI: > 75 µM
[3]
  TGI: > 75 µM
[4]
  TGI: > 75 µM
[6]
  TGI: > 75 µM
[7]
  TGI: > 75 µM
[8]
  TGI: > 75 µM
[9]
  TGI: > 75 µM
[10]
  TGI: > 75 µM
[11]
  TGI: > 75 µM
[12]
  TGI: > 75 µM
[13]
  TGI: > 75 µM
[14]
  TGI: > 75 µM

## CC1=C/C(=N\N(C)C)C(C(O)(C(F)(F)F)C(F)(F)F)C(C)(C)C1 (stereo not drawn)
[1]
  TGI: > 100 µM
[2]
  TGI: > 100 µM
[3]
  TGI: > 100 µM
[4]
  TGI: > 100 µM
[5]
  TGI: 81 µM
[6]
  TGI: > 100 µM
[7]
  TGI: > 100 µM
[8]
  TGI: > 100 µM
[9]
  TGI: > 100 µM
[10]
  TGI: > 100 µM
[12]
  TGI: > 100 µM
[13]
  TGI: > 100 µM
[14]
  TGI: > 100 µM

## C#CCOC(=O)C(N)CS (stereo not drawn)
[1]
  TGI: > 100 µM
[2]
  TGI: > 100 µM
[5]
  TGI: > 100 µM
[6]
  TGI: > 100 µM
[7]
  TGI: > 100 µM
[8]
  TGI: > 100 µM
[9]
  TGI: > 100 µM
[10]
  TGI: > 100 µM
[11]
  TGI: > 100 µM
[12]
  TGI: > 100 µM
[13]
  TGI: > 100 µM
[14]
  TGI: > 100 µM
